Laboratory results from patent US11478519B2, “Nutritional supplement containing iron” (CURA GLOBAL HEALTH (BVI) LIMITED, priority 2012, dated 2022).

System: Aspergillus oryzae
Procedure: The dose of iron was calculated as a concentration of iron elements rather than the concentration of salt; to enable comparison with the iron content in the fungal biomass. All fungal samples were thoroughly washed with deionizer water prior to testing by the ICP-OES method.
Other inorganic minerals such as selenium and zinc have been used to produce selenium or zinc enriched yeast, but the use of filamentous fungi has not been reported. […] A similar process (FIG. 2) was used for growing Aspergillus oryzae fortified with either sodium selenite or zinc sulfate. The dose of either inorganic salt was calculated as a concentration of the elements rather than the concentration of salt to enable comparison with the mineral content in the fungal biomass.

| Compound | effect on fungal yield | toxicity to Aspergillus oryzae (Fe3+ 1-200 mg/L in corn-ethanol Syrup) |
| --- | --- | --- |
| O=S(=O)([O-])[O-].[Zn+2] [Zinc, zinc sulfate] | increased fungal yield | – |
| O=S(=O)([O-])[O-].O=S(=O)([O-])[O-].O=S(=O)([O-])[O-].[Fe+3].[Fe+3] [ferric sulfate, Ferric sulfate (Fe2(SO4)3.2H2O)] | – | not toxic |
